Experimental data reported in ChEMBL document CHEMBL1201862, “PubChem BioAssay data set” (2004).
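48-hour exposure; five concentrations; linearly interpolated endpoints. The concentration for 50% growth inhibition is given as GI50.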 Calls of active or inactive are those of the source. No stated cut-off is given here; in the data, active = GI50 up to about 1.1 µM and inactive = higher.

How the values were obtained:
Assay in all cases: growth of human tumour cells (NCI), 48 h
SF-268 = test system: SF-268
TK-10 = test system: TK-10
OVCAR-3 = test system: OVCAR-3
OVCAR-8 = test system: OVCAR-8
Hs-578T = test system: Hs-578T
PC-3 = test system: PC-3
SNB-19 = test system: SNB-19
IGROV-1 = test system: IGROV-1
MCF7 = test system: MCF7
NCI-H460 = test system: NCI-H460
DU-145 = test system: DU-145
SW-620 = test system: SW-620
ACHN = test system: ACHN
SK-OV-3 = test system: SK-OV-3
RPMI-8226 = test system: RPMI-8226
SF-539 = test system: SF-539
KM12 = test system: KM12
SK-MEL-28 = test system: SK-MEL-28
NCI/ADR-RES = test system: NCI/ADR-RES

Measured: GI50

CC1=CCC[C@@H]2[C@@](C)(Cc3cc(O)ccc3O)[C@H](C)CC[C@@]12C
inactive: SF-268 7.43 µM | TK-10 9.08 µM | OVCAR-3 4.69 µM | OVCAR-8 5.45 µM | Hs-578T 5.92 µM | PC-3 4.33 µM | SNB-19 7.57 µM | IGROV-1 4.76 µM | MCF7 4.97 µM | NCI-H460 5.83 µM | DU-145 10.3 µM | SW-620 6.52 µM | ACHN 6.25 µM | SK-OV-3 12.6 µM | RPMI-8226 3.44 µM | SF-539 6.18 µM | KM12 4.54 µM | SK-MEL-28 8.81 µM | NCI/ADR-RES 5.24 µM

C/C(=N\N=C1/C(=O)OC(c2ccccc2)=C1C(=O)c1ccccc1)c1ccc([N+](=O)[O-])cc1
inactive: SF-268 > 100 µM | TK-10 > 100 µM | OVCAR-3 33.7 µM | OVCAR-8 35.7 µM | Hs-578T 54.3 µM | PC-3 65.9 µM | SNB-19 > 100 µM | IGROV-1 29.2 µM | MCF7 26.7 µM | NCI-H460 56.1 µM | DU-145 44.4 µM | SW-620 46.7 µM | ACHN 42.6 µM | SK-OV-3 85.3 µM | RPMI-8226 21.5 µM | SF-539 65.2 µM | KM12 86.3 µM | SK-MEL-28 54.7 µM | NCI/ADR-RES 60.7 µM

CON(C)C(=O)CNC(=O)OCC1c2ccccc2-c2ccccc21
inactive: SF-268 > 100 µM | TK-10 > 100 µM | OVCAR-3 > 100 µM | OVCAR-8 > 100 µM | Hs-578T > 100 µM | PC-3 85.1 µM | SNB-19 > 100 µM | IGROV-1 > 100 µM | MCF7 > 100 µM | NCI-H460 > 100 µM | DU-145 > 100 µM | SW-620 > 100 µM | ACHN > 100 µM | SK-OV-3 > 100 µM | RPMI-8226 36.2 µM | SF-539 > 100 µM | KM12 > 100 µM | SK-MEL-28 > 100 µM | NCI/ADR-RES > 100 µM

C=CCC1(O)c2ccccc2C(=O)c2c(O)ccc(O)c21 (stereo not drawn)
inactive: SF-268 10.5 µM | TK-10 14.6 µM | OVCAR-3 5.65 µM | OVCAR-8 12.4 µM | Hs-578T 4.24 µM | PC-3 8.2 µM | SNB-19 6.5 µM | IGROV-1 5.98 µM | MCF7 4.11 µM | NCI-H460 3.52 µM | DU-145 9.95 µM | SW-620 5.79 µM | ACHN 13.7 µM | SK-OV-3 10.4 µM | RPMI-8226 > 23.8 µM | SF-539 7.93 µM | KM12 3.94 µM | SK-MEL-28 8.28 µM | NCI/ADR-RES 2.12 µM

CCCCN1/C(=N/Nc2n[nH]c(=O)c3ccccc23)SCC1c1ccc(Cl)cc1 (stereo not drawn)
inactive: SF-268 6.64 µM | TK-10 33.9 µM | OVCAR-3 15 µM | OVCAR-8 15.4 µM | Hs-578T 15.1 µM | PC-3 14 µM | SNB-19 10.6 µM | IGROV-1 6.43 µM | MCF7 10.6 µM | NCI-H460 3.59 µM | DU-145 22.2 µM | SW-620 19.8 µM | ACHN 25.3 µM | SK-OV-3 21.8 µM | RPMI-8226 4.72 µM | SF-539 12.7 µM | KM12 5.01 µM | SK-MEL-28 19.1 µM | NCI/ADR-RES 8.79 µM

C=C1C(=O)C23CC1C[C@H](OC(C)=O)[C@H]2C1(C)C(OC(C)=O)C[C@H](O)C(C)(C)[C@H]1C(=O)[C@@H]3OC(C)=O (stereo partly drawn)
inactive: SF-268 9.08 µM | TK-10 2.28 µM | OVCAR-3 5.71 µM | OVCAR-8 2.95 µM | Hs-578T 3.98 µM | PC-3 10.3 µM | SNB-19 18.5 µM | IGROV-1 12.4 µM | MCF7 3.93 µM | NCI-H460 17.5 µM | DU-145 12.9 µM | SW-620 1.71 µM | ACHN 4.98 µM | SK-OV-3 18.1 µM | RPMI-8226 1.33 µM | SF-539 2.69 µM | KM12 10.9 µM | SK-MEL-28 4.59 µM | NCI/ADR-RES 16.7 µM

CCC(=O)NCCc1c[nH]c2ccc(OC)cc12
inactive: SF-268 > 100 µM | TK-10 > 100 µM | OVCAR-3 > 100 µM | OVCAR-8 > 100 µM | Hs-578T > 100 µM | PC-3 > 100 µM | SNB-19 > 100 µM | IGROV-1 > 100 µM | MCF7 > 100 µM | NCI-H460 > 100 µM | DU-145 > 100 µM | SW-620 > 100 µM | ACHN > 100 µM | SK-OV-3 > 100 µM | RPMI-8226 > 100 µM | SF-539 > 100 µM | KM12 > 100 µM | SK-MEL-28 > 100 µM | NCI/ADR-RES > 100 µM
